Results on seven compounds are retold here after patent publication US7250442B2, “Dihydroindol-2-one derivatives as steroid hormone nuclear receptor modulators” (Eli Lilly and Company, priority 2003, dated 2007).

One experiment addresses T1, human MR (Homo sapiens, UniProt P08235).
T1 construct: The full length human MR gene is cloned from a human kidney or human brain cDNA library; made in house; host or cells: Sf9 insect cells (baculovirus, pAcHLT transfer vector)
T1 sequence (P08235 1-984): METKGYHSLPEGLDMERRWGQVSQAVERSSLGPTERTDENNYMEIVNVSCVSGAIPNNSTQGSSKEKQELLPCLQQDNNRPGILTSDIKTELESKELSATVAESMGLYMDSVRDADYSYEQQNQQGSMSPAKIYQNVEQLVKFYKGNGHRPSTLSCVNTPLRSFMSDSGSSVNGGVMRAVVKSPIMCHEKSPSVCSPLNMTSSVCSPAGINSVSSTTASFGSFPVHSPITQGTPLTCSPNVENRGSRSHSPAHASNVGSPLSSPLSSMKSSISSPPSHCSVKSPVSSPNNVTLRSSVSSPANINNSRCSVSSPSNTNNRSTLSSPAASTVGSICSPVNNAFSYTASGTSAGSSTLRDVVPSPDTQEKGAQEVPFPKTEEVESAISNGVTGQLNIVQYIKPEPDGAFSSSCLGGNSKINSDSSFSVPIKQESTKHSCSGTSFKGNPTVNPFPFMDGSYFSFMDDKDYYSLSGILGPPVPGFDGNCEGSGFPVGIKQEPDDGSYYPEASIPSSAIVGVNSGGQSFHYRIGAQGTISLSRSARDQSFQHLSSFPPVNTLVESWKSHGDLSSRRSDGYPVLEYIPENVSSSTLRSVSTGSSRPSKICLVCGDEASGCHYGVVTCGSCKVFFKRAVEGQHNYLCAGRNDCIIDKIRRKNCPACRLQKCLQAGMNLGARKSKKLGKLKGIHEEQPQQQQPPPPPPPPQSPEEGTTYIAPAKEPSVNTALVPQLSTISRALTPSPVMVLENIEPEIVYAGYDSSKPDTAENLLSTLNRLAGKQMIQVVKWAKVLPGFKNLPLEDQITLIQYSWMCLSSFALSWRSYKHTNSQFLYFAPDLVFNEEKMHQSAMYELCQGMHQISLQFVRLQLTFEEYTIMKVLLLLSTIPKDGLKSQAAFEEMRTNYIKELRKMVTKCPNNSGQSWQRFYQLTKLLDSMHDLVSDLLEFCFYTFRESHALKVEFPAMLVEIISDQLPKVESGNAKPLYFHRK
The experiment can be described thus: Mineralocorticoid Receptor Binding Assay ([3H]-aldosterone displacement). To be noted: full length human MR expressed in Sf9 cells, 0.5 nM [3H]-aldosterone. The method, then:
Mineralocorticoid Receptor Binding Assay:
The full length human MR gene is cloned from a human kidney or human brain cDNA library. Briefly, using synthetic oligonucleotide primers (Eli Lilly and Company, Indianapolis) directed to nucleotides 20-54 and 3700-3666 of the human MR, polymerase chain reaction (PCR) is performed under standard conditions using a human cDNA library. The PCR reaction is performed in a final volume of 50 μl containing about 1 μl of a 50× stock solution of polymerase; about 1 μl of a 50× stock solution of dNTP; about 5 μl of an appropriate PCR buffer; about 1 μl of each primer; about 5 μl of a H. kidney or H. brain cDNA library; and about 36 μl of water. The reaction is allowed to denature for about 30 seconds at 95 degrees Celsius, anneal for about 30 seconds at 55 degrees Celsius, and extend for about 5 minutes at 72 degrees Celsius, the sequence being repeated for a total of about 35 cycles. The desired PCR product (3.68 Kb) is confirmed by gel electrophoresis and subsequently cut from the gel and stored at about −20 degrees Celsius until extraction. To extract the cDNA product from the agarose gel, the QIAEX II Gel Extraction protocol (QIAGEN, Inc.) is employed according to the manufacturer's instructions. Following extraction, the MR cDNA is cloned into an appropriate cloning vector (Zero Blunt TOPO PCR Cloning Kit (Invitrogen, Inc.) and a pAcHLT-baculovirus transfer vector (B.D./Pharminogen), then expressed in SF9 insect cells, essentially according to manufacturer's instructions. Sf9 cells are grown at a scale where gram quantity cell pellets are obtained for subsequent use in the MR binding assay. Harvested cell pellets are lysed by repeated freeze-thaw cycles (about 4) in a suitable lysis buffer then centrifuged at about 1×10^3 G (with the supernatant being saved for future assays).
MR binding assays are performed in a final total volume of about 250 μl containing about 20-25 μg of protein and 0.5 nM of [^3H]-aldosterone plus varying concentrations of test compound or vehicle. The assay binding buffer consists of 30 mM sodium molybdate, 30 mM of TRIS-HCl, 5 mM sodium phosphate, 5 mM sodium pyrophosphate, and about 10% glycerol, pH=7.5.
Briefly, assays are prepared at RT in 96-well Falcon 3072 plates, each well containing 210 μl of binding buffer, 10 μl of [^3H]-aldosterone, 10 μl of test compound/vehicle, and 20 μl of the resuspended receptor protein extract. Incubations are carried out at 4 degrees Celsius with shaking for about 16 hours. 200 μl aliquots of each incubation are filtered onto Millipore HA 0.45 micron 96-well filter plates, pre-moistened with cold 30 mM TRIS-HCl. The filter plates are suctioned dry with vacuum and immediately washed 3× with cold 30 mM TRIS-HCl. The plates are then punched out and the amount of receptor-ligand complex is determined by liquid scintillation counting using 4 ml of Ready Protein Plus™ liquid scintillation cocktail.
IC50 values (defined as the concentration of test compound required to decrease [^3H]-aldosterone binding by 50%) are then determined. Ki values for each respective test compound can then be calculated by application of the Cheng-Prusoff equation as described in Cheng et al., Relationship Between The Inhibition Constant (Ki) and The Concentration of Inhibitor Which Causes 50% Inhibition (IC50) of an Enzymatic Reaction, Biochem. Pharmacol., 22: 3099-31088; (1973).

The conditions of experiment [1]: in combination with standard CHF therapy, patients suffering from advanced CHF; cited from earlier work.

With `Cc1cc(C2(c3cc(C)c(O)c(C)c3)C(=O)N(Cc3ccc4ccccc4c3)c3ccccc32)cc(C)c1O` [Example 59, 3,3-Bis-(4-hydroxy-3,5-dimethyl-phenyl)-1-naphthalen-2-ylmethyl-1,3-dihydro-indol-2-one], the Ki (in general, a dissociation constant, usually derived from enzyme kinetics or from competition with a known ligand) on human MR was at most 500 nM.

`Cc1cc(C2(c3cc(C)c(O)c(C)c3)C(=O)N(Cc3ccc(C(=O)c4ccccc4)cc3)c3ccccc32)cc(C)c1O` [Example 71, 1-(4-Benzoyl-benzyl)-3,3-bis-(4-hydroxy-3,5-dimethyl-phenyl)-1,3-dihydro-indol-2-one] had a Ki on human MR of at most 500 nM.

As to `Cc1cc(C2(c3cc(C)c(O)c(C)c3)C(=O)N(CC(=O)NC3CCCCC3)c3ccccc32)cc(C)c1O` [Example 96, 2-[3,3-Bis-(4-hydroxy-3,5-dimethyl-phenyl)-2-oxo-2,3-dihydro-indol-1-yl]-N-cyclohexyl-acetamide], at human MR, the Ki is at most 500 nM.

`Cc1cc(C2(c3cc(C)c(O)c(C)c3)C(=O)N(Cc3cccnc3)c3ccccc32)cc(C)c1O` [Example 103, 3,3-Bis-(4-hydroxy-3,5-dimethyl-phenyl)-1-pyridin-3-ylmethyl-1,3-dihydro-indol-2-one] displayed an inhibitory constant (Ki) at human MR of at most 500 nM.

Turning to `C=CCN1C(=O)C(c2cc(C)c(O)c(C)c2)(c2cc(C)c(O)c(C)c2)c2ccccc21` [Example 104, 1-Allyl-3,3-bis-(4-hydroxy-3,5-dimethyl-phenyl)-1,3-dihydro-indol-2-one], the Ki at human MR was at most 500 nM.

As to `Cc1cc(C2(c3cc(C)c(O)c(C)c3)C(=O)N(CCc3ccccn3)c3ccccc32)cc(C)c1O` [Example 122, 3,3-Bis-(4-hydroxy-3,5-dimethyl-phenyl)-1-(2-pyridin-2-yl-ethyl)-1,3-dihydro-indol-2-one], the Ki at human MR was at most 500 nM.

Regarding `CC(=O)S[C@@H]1CC2=CC(=O)CC[C@]2(C)[C@H]2CC[C@@]3(C)[C@@H](CC[C@@]34CCC(=O)O4)[C@H]12` [spironolactone], in experiment [1], the “reduced cardiac related mortality” value is listed as 30% and the “reduced frequency of hospitalization” value was 35%.
